Each structure is given as a SMILES string.

The first assay deals with TNFα. Description: Cot Monocyte TNFα Cell Based Assay. To be noted: Homo sapiens, Monocyte, read-out: EC50 TNF, LPS-stimulated human monocytes, TNFα.
A word on the EC50: it is the concentration at which the effect is half-maximal. Consider `Cc1ccc([C@H](Nc2cc(Cl)c3ncc(C#N)c(Nc4ccc(F)c(Cl)c4)c3c2)c2cn(C3CCN(C(C)(C)C)CC3)nn2)cn1` [Example 281, (S)-6-(((1-(1-(tert-butyl)piperidin-4-yl)-1H-1,2,3-triazol-4-yl)(6-methylpyridin-3-yl)methyl)amino)-8-chloro-4-((3-chloro-4-fluorophenyl)-amino)quinoline-3-carbonitrile], for which the EC50 worked out at 0.575 µM. For `CC(C)(C)N1CCC(n2cc([C@@H](Nc3cc(Cl)c4ncc(C#N)c(Nc5cncc(Cl)c5)c4c3)c3cccnc3)nn2)CC1` [Example 284, (S)-6-(((1-(1-(tert-butyl)piperidin-4-yl)-1H-1,2,3-triazol-4-yl)(pyridin-3-yl)methyl)amino)-8-chloro-4-((5-chloropyridin-3-yl)amino)quinoline-3-carbonitrile], the EC50 turned out to be 1.3 µM. The same measure, in the same setting: the result for `COc1ccc([C@H](Nc2cc(Cl)c3ncc(C#N)c(Nc4ccc(F)c(Cl)c4)c3c2)c2cn(C3CCN(C(C)(C)C)CC3)nn2)cn1` [Example 290, (S)-6-(((1-(1-(tert-butyl)piperidin-4-yl)-1H-1,2,3-triazol-4-yl)(6-methoxy-pyridin-3-yl)methyl)amino)-8-chloro-4-((3-chloro-4-fluorophenyl)amino)-quinoline-3-carbonitrile] reads 0.185 µM. Regarding `CC(C)(C)N1CCC(n2cc([C@@H](Nc3cc(Cl)c4ncc(C#N)c(Nc5ccc(F)c(Cl)c5)c4c3)c3cnc(F)c(F)c3)nn2)CC1` [Example 292, (S)-6-(((1-(1-(tert-butyl)piperidin-4-yl)-1H-1,2,3-triazol-4-yl)(5,6-difluoropyridin-3-yl)methyl)amino)-8-chloro-4-((3-chloro-4-fluorophenyl)amino)quinoline-3-carbonitrile], the EC50 came out at 0.327 µM. Turning to `CC(C)n1cc([C@@H](Nc2cc(Cl)c3ncc(C#N)c(Nc4ccc(F)c(Cl)c4)c3c2)c2csc(N3CCOCC3)n2)nn1` [Example 301, (S)-8-chloro-4-((3-chloro-4-fluoro-phenyl)amino)-6-(((1-isopropyl-1H-1,2,3-triazol-4-yl)(2-morpholinothiazol-4-yl)methyl)amino)quinoline-3-carbonitrile], the EC50 stood at 0.414 µM. `CC(C)n1cc([C@@H](Nc2cc(Cl)c3ncc(C#N)c(Nc4ccc(F)c(Cl)c4)c3c2)c2cncs2)nn1` [Example 303, (R)-8-chloro-4-((3-chloro-4-fluorophenyl)amino)-6-(((1-isopropyl-1H-1,2,3-triazol-4-yl)(thiazol-5-yl)methyl)amino)quinoline-3-carbonitrile]: the EC50 is 0.868 µM. With `CC(C)n1cc([C@@H](Nc2cc(Cl)c3ncc(C#N)c(Nc4ccc(F)c(Cl)c4)c3c2)c2cocn2)nn1` [Example 312, (S)-8-chloro-4-((3-chloro-4-fluorophenyl)amino)-6-(((1-isopropyl-1H-1,2,3-triazol-4-yl)(oxazol-4-yl)methyl)amino)quinoline-3-carbonitrile], the EC50 is 1.24 µM. For the compound `N#Cc1cnc2c(Cl)cc(N[C@@H](c3cccnc3)c3cn(C4CCN(C5COC5)CC4)nn3)cc2c1Nc1ccc(F)c(Cl)c1` [Example 314, (S)-8-chloro-4-((3-chloro-4-fluorophenyl)amino)-6-(((1-(1-(oxetan-3-yl)piperidin-4-yl)-1H-1,2,3-triazol-4-yl)(pyridin-3-yl)methyl)amino)quinoline-3-carbonitrile], the EC50 is 0.302 µM. As to `N#Cc1csc([C@H](Nc2cc(Cl)c3ncc(C#N)c(Nc4ccc(F)c(Cl)c4)c3c2)c2cn(C3COC3)nn2)c1` [Example 339, (R)-8-chloro-4-((3-chloro-4-fluorophenyl)amino)-6-(((4-cyanothiophen-2-yl)(1-(oxetan-3-yl)-1H-1,2,3-triazol-4-yl)methyl)amino)-quinoline-3-carbonitrile], the EC50 turned out to be 1.01 µM.

For `CC(C)(C)N1CCC(n2cc([C@@H](Nc3cc(Cl)c4ncc(C#N)c(Nc5ccc(F)c(Cl)c5)c4c3)c3cocn3)nn2)CC1` [Example 348, (S)-6-(((1-(1-(tert-butyl)piperidin-4-yl)-1H-1,2,3-triazol-4-yl)(oxazol-4-yl)methyl)amino)-8-chloro-4-((3-chloro-4-fluorophenyl)amino)-quinoline-3-carbonitrile], the EC50 was determined as 0.444 µM. `N#Cc1cnc2c(Cl)cc(N[C@@H](c3cscn3)c3cn(C4CCNCC4)nn3)cc2c1Nc1ccc(F)c(Cl)c1` [Example 354, (S)-8-chloro-4-((3-chloro-4-fluorophenyl)amino)-6-(((1-(piperidin-4-yl)-1H-1,2,3-triazol-4-yl)(thiazol-4-yl)methyl)amino)-quinoline-3-carbonitrile]: the concentration giving a half-maximal response (EC50) is 0.983 µM.

Take `CC(C)(C)n1cc([C@@H](Nc2cc(Cl)c3ncc(C#N)c(Nc4ccc(F)c(Cl)c4)c3c2)c2cscn2)nn1` [Example 361, (S)-6-(((1-(tert-butyl)-1H-1,2,3-triazol-4-yl)(thiazol-4-yl)methyl)-amino)-8-chloro-4-((3-chloro-4-fluorophenyl)amino)quinoline-3-carbonitrile]: the EC50 came to 0.746 µM.

In the case of `CCN1CCC(n2cc(C(Nc3cc(Cl)c4ncc(C#N)c(Nc5ccc(F)c(Cl)c5)c4c3)c3ncccn3)nn2)CC1` (stereo not shown) [Example 367, 8-chloro-4-((3-chloro-4-fluorophenyl)amino)-6-(((1-(1-ethylpiperidin-4-yl)-1H-1,2,3-triazol-4-yl)(pyrimidin-2-yl)methyl)-amino)quinoline-3-carbonitrile], the EC50 was found to be 0.338 µM.

With `CCN1CCC(n2cc([C@@H](Nc3cc(Cl)c4ncc(C#N)c(Nc5ccc(F)c(Cl)c5)c4c3)c3cccs3)nn2)CC1` [Example 380, (R)-8-chloro-4-((3-chloro-4-fluoro-phenyl)amino)-6-(((1-(1-ethylpiperidin-4-yl)-1H-1,2,3-triazol-4-yl)(thiophen-2-yl)methyl)amino)quinoline-3-carbonitrile], the EC50 worked out at 0.609 µM.

Regarding `CCN1CCC(n2cc([C@@H](Nc3cc(Cl)c4ncc(C#N)c(Nc5ccc(F)c(Cl)c5)c4c3)c3ccc(Cl)s3)nn2)CC1` [Example 382, (R)-8-chloro-4-((3-chloro-4-fluoro-phenyl)amino)-6-(((5-chlorothiophen-2-yl)(1-(1-ethylpiperidin-4-yl)-1H-1,2,3-triazol-4-yl)methyl)amino)quinoline-3-carbonitrile], the EC50 worked out at 0.768 µM.

Regarding `Cc1nc(F)ccc1[C@H](Nc1cc(Cl)c2ncc(C#N)c(N[C@H](CCC#N)c3ccccc3)c2c1)c1cn(C2CC2)nn1` [Example 431, 8-chloro-4-(((R)-3-cyano-1-phenyl-propyl)amino)-6-(((S)-(1-cyclopropyl-1H-1,2,3-triazol-4-yl)(6-fluoro-2-methylpyridin-3-yl)methyl)amino)-quinoline-3-carbonitrile], the EC50 turned out to be 0.021 µM. For `CC(C)(C)CNc1c(C#N)cnc2c(Br)cc(N[C@H](c3cn(C4(C(F)(F)F)CC4)nn3)c3cccc4ncsc34)cc12` [Example 439, (S)-6-((benzo[d]thiazol-7-yl(1-(1-(trifluoromethyl)cyclopropyl)-1H-1,2,3-triazol-4-yl)methyl)amino)-8-bromo-4-(neopentylamino)quinoline-3-carbonitrile], the EC50 came out at 0.299 µM. Same read-out and setting: the result for `CC(C)(C)CNc1c(C#N)cnc2c(C#N)cc(N[C@H](c3cn(C4(CF)CC4)nn3)c3cccc4ncsc34)cc12` [Example 441, (S)-6-((benzo[d]thiazol-7-yl(1-(1-(fluoromethyl)cyclopropyl)-1H-1,2,3-triazol-4-yl)methyl)amino)-4-(neopentylamino)quinoline-3,8-dicarbonitrile] reads 0.026 µM; that for `Cc1nc(F)ccc1[C@H](Nc1cc(F)c2ncc(C#N)c(NCC(C)(C)C)c2c1)c1cn(C2(C#N)CC2)nn1` [Example 485, (S)-6-(((1-(1-cyanocyclopropyl)-1H-1,2,3-triazol-4-yl)(6-fluoro-2-methylpyridin-3-yl)methyl)amino)-8-fluoro-4-(neopentyl-amino)quinoline-3-carbonitrile], 0.029 µM. On the same count and under the same terms, the result for `Cn1ccc2c([C@H](Nc3cc(Cl)c4ncc(C#N)c(NCC(C)(C)C)c4c3)c3cn(C4CC4)nn3)ccnc21` [Example 519, (S)-8-chloro-6-(((1-cyclopropyl-1H-1,2,3-triazol-4-yl)(1-methyl-1H-pyrrolo[2,3-b]pyridin-4-yl)methyl)amino)-4-(neopentylamino)quinoline-3-carbonitrile] reads 0.158 µM; that for `Cn1ncc2cccc([C@H](Nc3cc(C#N)c4ncc(C#N)c(NCC(C)(C)C)c4c3)c3cn(C4(C(F)(F)F)CC4)nn3)c21` [Example 526, (S)-6-(((1-methyl-1H-indazol-7-yl)(1-(1-(trifluoromethyl)cyclopropyl)-1H-1,2,3-triazol-4-yl)methyl)amino)-4-(neopentylamino)quinoline-3,8-dicarbonitrile], 0.073 µM; that for `Cn1ncc2c([C@H](Nc3cc(Cl)c4ncc(C#N)c(NCC(C)(C)C)c4c3)c3cn(C4(C(F)(F)F)CC4)nn3)cccc21` [Example 543, (S)-8-chloro-6-(((1-methyl-1H-indazol-4-yl)(1-(1-(trifluoromethyl)cyclopropyl)-1H-1,2,3-triazol-4-yl)methyl)amino)-4-(neopentylamino)quinoline-3-carbonitrile], 0.422 µM.

The assay is the same for the next values; noted with them: read-out: EC50 TNF; LPS-stimulated human monocytes, TNFα.
On to `Cc1cc(Cl)ncc1[C@H](Nc1cc(Cl)c2ncc(C#N)c(Nc3ccc(F)c(Cl)c3)c2c1)c1cn(C2CCN(C(C)(C)C)CC2)nn1` [Example 289], for which the EC50 was found to be 0.837 µM. In the case of `CC(C)Oc1ncccc1[C@H](Nc1cc(Cl)c2ncc(C#N)c(Nc3ccc(F)c(Cl)c3)c2c1)c1cn(C2CCN(C(C)(C)C)CC2)nn1` [Example 291, (S)-6-(((1-(1-(tert-butyl)piperidin-4-yl)-1H-1,2,3-triazol-4-yl)(2-isopro-poxypyridin-3-yl)methyl)amino)-8-chloro-4-((3-chloro-4-fluorophenyl)-amino)quinoline-3-carbonitrile], the EC50 turned out to be 0.478 µM. Regarding `CC(C)(C)N1CCC(n2cc([C@@H](Nc3cc(Cl)c4ncc(C#N)c(Nc5ccc(F)c(Cl)c5)c4c3)c3cccnc3)nn2)CC1` [Example 369, (S)-6-(((1-(1-(tert-butyl)piperidin-4-yl)-1H-1,2,3-triazol-4-yl)(pyridin-3-yl)methyl)amino)-8-chloro-4-((3-chloro-4-fluorophenyl)amino)quin-oline-3-carbonitrile], the EC50 was 0.089 µM.

The values are drawn from patent US11066414B2, “Cot modulators and methods of use thereof” (Gilead Sciences, Inc., priority 2015, dated 2021).
